Patent publication US20230060873A1, “COMPOUNDS AND METHODS FOR FORMING ION CHANNELS IN BIOLOGICAL MEMBRANES” (Washington University, priority 2021, published 2023)

Assays:
B. subtilis membranes = assay: DiSC3(5) depolarization assay, MAcBCE/MAkBCE; format: cell-based, Bacillus subtilis; conditions: 2 μM compound, 60 mM KCl, NaCl or NMDG-Cl; for change in DiSC3(5) fluorescence (membrane depolarization): 25° C, 10 minutes
Experimental: A 2 mL liquid culture of transformed B. subtilis cells was grown at 37° C. in LB medium supplemented with 5 μg/mL kanamycin until OD600=0.6 was reached. The cells were collected by centrifugation at 2000 rpm over 3 min. The bacteria were washed twice with an NMDG-MeSO3 solution (100 mM NMDG, 10 mM HEPES, pH adjusted to 7.4 with methane sulfonic acid). […] The working dye solution was a 200 μM solution of DiSC3(5) (3,3′-dipropylthiadicarbocyanine iodide; Tokyo Chemical Industry) in DMSO. A series of 2 M solutions of NMDG-Cl, NaCl and KCl were prepared containing 10 mM HEPES; the pH was adjusted to pH 7.4 with NMDG, NaOH or KOH, respectively, to avoid any pH changes after their addition. The experiment was initiated with 3 mL of NMDG-MeSO3 in a quartz cuvette, then 5 μL of the dye solution was added (timepoint t1, 50 sec) for a 0.3 μM final concentration by the end of experiment. This was followed by the addition of 100 μL of the B. subtilis suspension (timepoint t2, 100 sec). After 150 sec (timepoint t3, 250 sec), the fluorescence stabilized to a minimum intensity and 100 μL of the 2 M NMDG-Cl, NaCl or KCl solution was added to reach ˜60 mM final concentration of the salt. The final step was the addition 0.64 μL of a 10 mM stock solution of the desired MAcBCE or MAkBCE compound in TFE (timepoint t4, 400 sec), for a final concentration of 2 μM. Negative controls were performed by adding the same volume of pure TFE to the cuvette at timepoint t4. Fluorescence intensity was recorded each second using a Horiba Fluoromax 4 spectrometer (λexcitation=640 nm; λemission=670 nm). The solution inside the cuvette was vigorously mixed throughout the experiment by using a magnetic stirrer and the temperature was kept constant at 25° C. For purposes of normalization, the fluorescence intensity was divided by the fluorescence level just before timepoint t2.
To determine whether MAcBCE or MAkBCE compounds catalyse ion-selective flux, a set of highly bioactive members bearing ten-carbon chain lengths were tested for their ability to depolarize B. subtilis membranes using a test based on the fluorescent dye 3,3-dipropylthiadicarbocyanine (DiSC3(5)). This set of compounds were selected as four of the most toxic members of the MAcBCE and MAkBCE compound library (5-O-10, 5-A-10, 6-O-10, and 6-A-10; FIG. 3) belong to this group and all are soluble in TFE. The two non-toxic benzo(12-crown-4) scaffold members (4-O-10 and 4-A-10; FIG. 3) were used as controls.
FIGS. 4 and 5 show the time course of DiSC3(5) fluorescence due to the addition of 2 μM 6-A-10 (FIG. 4) and 6-O-10 (FIG. 5). The average of the final fluorescence values (mean±S.E.M.) of at least three experiments are shown in FIGS. 4 and 5 and are similarly plotted for 4-A-10 (FIG. 6), 5-A-10 (FIG. 7), 6-A-10 (FIG. 8), 4-O-10 (FIG. 9), 5-O-10 (FIG. 10), and 6-O-10 (FIG. 11). Experiments were performed in a NMDG-MeSO3 solution (100 mM NMDG, 10 mM HEPES, pH adjusted to 7.4 with methane sulfonic acid). The events are: t1, addition of dye; t2, addition of B. subtilis; t3, addition of a 2 M NMDG-Cl, 2 M NaCl or a 2 M KCl solution up to a final concentration of 60 mM; t4, addition of each MAcBCE or MAkBCE compound up to 2 μM. Experiments were repeated at least four times per condition and normalized relative to the fluorescence intensity just before the addition of cells.
The potentiometric dye DiSC3(5) was used to measure the ability of MAcBCE and MAkBCE compounds to catalyse ion-selective transport. DiSC3(5) undergoes membrane voltage-dependent partitioning between the intracellular and the extracellular medium. DiSC3(5) accumulates within a cell with a polarized membrane (negatively charged inside the cell) and is released when the cell membrane is depolarized (positively charged inside the cell). The membrane voltage in B. subtilis is roughly −120 mV, leading to DiSC3(5) accumulation in the bacteria (timepoint t2 in FIG. 4A-B). […]

[1] = Reversal potential and permeability ratio under bi-ionic conditions (voltage ramps); format: biochemical; conditions: 10 μM; for permeability ratio pK/pNa: Goldman-Hodgkin-Katz equation from reversal potential; for estimated reversal potential: internal 180 mM NaCl, 20 mM KCl, external 20 mM NaCl, 180 mM KCl, n=6
Experimental: This can be determined by measuring the reversal potential under bi-ionic conditions and by applying rapid voltage ramps to measure reversal from open channels. For the determination of permeability ratios, a voltage protocol (detailed below) was applied 100 times to the membrane, while a gradient of ions was set through the membrane (internal solution: 180 mM NaCl, 20 mM KCl, 30 mM HEPES, pH adjusted to 7.4 with NaOH; external solution: 20 mM NaCl, 180 mM KCl, 30 mM HEPES, pH adjusted to 7.4 with NaOH). The protocol started from the holding potential (0 mV), followed by a jump to 100 mV during 100 ms, then a ramp of 1000 ms until −100 mV, maintenance of the voltage at −100 mV for 100 ms before returning to the initial 0 mV holding potential. Calculation of the variance at every isochrone allowed determination of the reversal potential (Vrev) as the voltage at which the variance is minimized. The permeability ratio for
was calculated from the Goldman-Hodgkin-Katz (GHK) equation by assuming that reversal potential is the equilibrium membrane voltage reached by a selective membrane in the presence of that gradient of ions. This leads to the equation 1: […]
where F is the Faraday constant, R is the gas constant, T is the absolute temperature, [K^+]i, and [K^+]e are the internal and external K^+ concentrations, respectively, and [Na^+]i, and [Na^+]e are the internal and external Na^+ concentrations, respectively.
Multiple voltage ramps (N=100) from +100 mV to −100 mV were applied in the presence of 10 μM 6-A-10 (FIG. 18) and 10 μM 6-O-10 (FIG. 20). The reversal potential for each case was determined as that voltage which produces the minimum of variance (FIGS. 19 and 21). In FIGS. 19 and 21, the curves are the variance calculated from experiments in FIGS. 18 and 20, respectively.
In these experiments, the internal concentration of Na^+ in the pipette was 9-fold higher than the external concentration, whereas the K^+ gradient was reversed (internal solution: 180 mM NaCl, 20 mM KCl, 30 mM HEPES, pH 7.4; external solution: 20 mM NaCl, 180 mM KCl, 30 mM HEPES, pH 7.4). If the channels are K^+ selective, the reversal potential will be close to the K^+ Nernst potential, which is 58 mV. In contrast, if the channels are highly Na^+ selective, then the reversal potential will be close to the Na^+ Nernst potential (−58 mV).

SMILES | kinetics of the depolarization, ion dependence (B. subtilis membranes) | change in DiSC3(5) fluorescence (membrane depolarization) (B. subtilis membranes) | permeability ratio pK/pNa [1] | estimated reversal potential [1] [mV]
CCCCCCCCCC(=O)c1ccc2c(c1)OCCOCCOCCOCCOCCO2 [Compound 6-O-10, 1-(2,3,5,6,8,9,11,12,14,15-decahydrobenzo[b][1,4,7,10,13,16]hexaoxacyclooctadecin-18-yl)decan-1-one] | fastest in presence of K^+ followed by Na^+ and then NMDG^+ | clear increase in fluorescence | 1.3 | 6.5±0.6
CCCCCCCCCCc1ccc2c(c1)OCCOCCOCCOCCOCCO2 [Compound 6-A-10, 18-decyl-2,3,5,6,8,9,11,12,14,15-decahydrobenzo[b][1,4,7,10,13,16]hexaoxacyclooctadecine] |  | clear increase in fluorescence | 1.4 | 8.0±0.8
